# Assay results taken from patent US20250161273A1, “PHARMACEUTICAL COMPOSITION COMPRISING DIPHENYLDIAZOLE DERIVATIVES AND METHODS OF USE” (MODAG GMBH, priority 2022, published 2025).
# Where two headings read alike, the source gives them in different places.
# Key:
# [1] = phase 1 first-in-human trial, multiple ascending dose (MAD) PK; assay type: in vivo; conditions: for reduction of AUC compared to Day 1 / reduction of Cmax compared to Day 1: Day 7, fasted; for fold increase in AUC / fold increase in Cmax: MAD Day 1; for AUC: read-out: AUC(0-tau) (geometric mean); for Cmax: read-out: Cmax (geometric mean)
# Method: Anle138b was studied in a single-centre, double-blind, randomised, placebo-controlled single ascending dose (SAD) and multiple ascending dose (MAD) study in healthy subjects. Eligible participants were randomly assigned (1:1 for sentinel subjects and 1:5 for main group) to placebo or anle138b (dose ranging from 50 mg to 300 mg per day), respectively. In addition, the effect of food on the pharmacokinetics (PK) of anle138b in healthy subjects was examined at doses of 150 mg per day (FES, food effect study). Participants were randomized to treatment sequence (fed→fasted) or (fasted→fed). Treatment for the SAD, MAD and FES arms of the study was administered orally in hard gelatin capsules containing either 10 mg or 30 mg of anle138b with excipient (i.e., lauroyl polyoxyl-32 glycerides) or excipient only. The primary endpoints were safety and tolerability, the secondary endpoint was pharmacokinetics. Data from all randomized individuals were evaluated. [Clinicaltrials.gov-identifier: NCT04208152. EudraCT-number: 2019-004218-33]
# Study design: A single-centre, double-blind, randomised, placebo-controlled single ascending dose (SAD) and multiple ascending dose (MAD) study of anle138b in doses of up to 300 mg per day in healthy subjects. The effect of food (FES) on the PK of anle138b in healthy subjects was examined using doses of 150 mg. Participants were recruited from Quotient Sciences (the “CRO”, Nottingham, UK) volunteer database. Approvals from the ethical review board and from the Medicines and Healthcare products Regulatory Agency (UK) were obtained. This study was conducted in accordance with the protocol and with the following legislation: The updated version of the international Council for Harmonisation Good Clinical Practice (GCP) including the integrated Addendum E6, the Medicines for Human Use (Clinical Trials) Regulations including amendments No. 1928, 2984 and 941. In addition, the study was performed according to the ethical principles outlined in the World Medical Association Declaration of Helsinki and its amendments. The study data was monitored. An independent study monitor was appointed to verify that the study was conducted in accordance with current GCP, regulatory requirements, the protocol and that the data were authentic, accurate and complete.
# In SAD, subjects received a single dose of anle138b or placebo after fasting from all food and drink (except water) for a minimum of 8 h prior to dosing. The dosing in the four SAD-cohorts were 50 mg, 100 mg, 200 mg and 300 mg of free anle138b equivalent, QD, cohorts A, B, C and D respectively. In the MAD part, participants received anle138b or placebo once daily (QD) for 7 days after fasting from all food and drink (except water) for a minimum of 8 h prior to dosing. The dosing in the three MAD-cohorts was 100 mg, 200 mg and 300 mg of free anle138b equivalent, cohorts AM, BM and CM, respectively. Post dosing mouth and hand checks were conducted to ensure the capsules were swallowed. In-study decisions were made by the safety advisory committee (SAC) comprising the principal investigator, the sponsor's medical monitor and a PK expert. For dose escalation to proceed, data needed to be available from a minimum of 6 subjects per cohort with completed per protocol safety and PK assessments up to 48 h after dosing to ensure at least 4 subjects had received active IMP. The decision to proceed to the next higher dose level was based on safety, tolerability and available PK data to 48 h post-administration. The following data were analyzed: Adverse events, vital signs, safety laboratory, ECG, physical examinations, plasma concentrations of anle138b with interim PK parameter estimations (Tmax, Cmax, AUC0-24, AUC0-tau, AUC0-last and T½, where applicable). Data were provided to the SAC in accordance with CRO standard operating procedure (SOP) on interim dose decision-making and dose escalation. […]
# monomer = conditions: cited from earlier work
# [2] = 1.5-fold increase in dose from 200 mg to 300 mg
# [3] = 2-fold increase in dose from 100 mg to 200 mg
# [4] = human, plasma, oral, 100 mg, healthy volunteers, fasted, 100 mg QD, Day 1
# [5] = human, plasma, oral, 100 mg, healthy volunteers, fasted, 100 mg QD, Day 7
# [6] = human, plasma, oral, 200 mg, healthy volunteers, fasted, 200 mg QD, Day 1
# [7] = human, plasma, oral, 200 mg, healthy volunteers, fasted, 200 mg QD, Day 7
# [8] = human, plasma, oral, 300 mg, healthy volunteers, fasted, 300 mg QD, Day 1
# [9] = human, plasma, oral, 300 mg, healthy volunteers, fasted, 300 mg QD, Day 7
smiles,measurement,setting,value
"Brc1cccc(-c2cc(-c3ccc4c(c3)OCO4)n[nH]2)c1 [anle138b, 3-(1,3-benzodioxol-5-yl)-5-(3-bromophenyl)-1H-pyrazole]",reduction of AUC compared to Day 1,[1]; MAD 100 mg group,about 53%
same,reduction of Cmax compared to Day 1,[1]; MAD 100 mg group,about 53%
same,reduction of AUC compared to Day 1,[1]; MAD 200 mg group,about 70%
same,reduction of Cmax compared to Day 1,[1]; MAD 200 mg group,about 70%
same,reduction of AUC compared to Day 1,[1]; MAD 300 mg group,71%
same,reduction of Cmax compared to Day 1,[1]; MAD 300 mg group,66%
same,fold increase in AUC,[1]; [2],2.4 fold
same,fold increase in Cmax,[1]; [2],2.0 fold
same,fold increase in AUC,[1]; [3],3.5 fold
same,fold increase in Cmax,[1]; [3],3.3 fold
same,accumulation ratios per cohort,"[1]; MAD, Day 7 vs Day 1",below 0.54
same,day by which steady state exposure appeared to be reached,"[1]; MAD, based on trough levels",≤ 5 days
same,Tmax,"[1]; human, plasma, oral, 100 mg, healthy volunteers, fasted, 100 mg QD (Cohort AM), Day 1, read-out: Tmax (median)",1 h
same,Tmax,"[1]; human, plasma, oral, 100 mg, healthy volunteers, fasted, 100 mg QD (Cohort AM), Day 1, read-out: Tmax (range)",1 to 1.5 h
same,Tmax,"[1]; human, plasma, oral, 100 mg, healthy volunteers, fasted, 100 mg QD (Cohort AM), Day 7, read-out: Tmax (median)",1.25 h
same,Tmax,"[1]; human, plasma, oral, 100 mg, healthy volunteers, fasted, 100 mg QD (Cohort AM), Day 7, read-out: Tmax (range)",1 to 1.5 h
same,AUC,[1]; [4],~261 ng·h/mL
same,Cmax,[1]; [4],~135 ng/mL
same,AUC,[1]; [5],~141 ng·h/mL
same,Cmax,[1]; [5],~70.9 ng/mL
same,half-life,"[1]; human, plasma, oral, 100 mg, healthy volunteers, fasted, 100 mg QD, Day 7, read-out: T1/2 (geometric mean) (converted)",~4.23 h
same,Tmax,"[1]; human, plasma, oral, 200 mg, healthy volunteers, fasted, 200 mg QD (Cohort BM), Day 1, read-out: Tmax (median)",1.5 h
same,Tmax,"[1]; human, plasma, oral, 200 mg, healthy volunteers, fasted, 200 mg QD (Cohort BM), Day 1, read-out: Tmax (range)",1 to 2.02 h
same,Tmax,"[1]; human, plasma, oral, 200 mg, healthy volunteers, fasted, 200 mg QD (Cohort BM), Day 7, read-out: Tmax (median)",1 h
same,Tmax,"[1]; human, plasma, oral, 200 mg, healthy volunteers, fasted, 200 mg QD (Cohort BM), Day 7, read-out: Tmax (range)",1 to 1.5 h
same,AUC,[1]; [6],~905 ng·h/mL
same,Cmax,[1]; [6],~447 ng/mL
same,AUC,[1]; [7],~308 ng·h/mL
same,Cmax,[1]; [7],~128 ng/mL
same,half-life at 7 days,"[1]; human, plasma, oral, 200 mg, healthy volunteers, fasted, 200 mg QD, Day 7, read-out: T1/2 (geometric mean) (converted)",~10 h
same,Tmax,"[1]; human, plasma, oral, 300 mg, healthy volunteers, fasted, 300 mg QD (Cohort CM), Day 1, read-out: Tmax (median)",1.5 h
same,Tmax,"[1]; human, plasma, oral, 300 mg, healthy volunteers, fasted, 300 mg QD (Cohort CM), Day 1, read-out: Tmax (range)",1.5 to 2 h
same,Tmax,"[1]; human, plasma, oral, 300 mg, healthy volunteers, fasted, 300 mg QD (Cohort CM), Day 7, read-out: Tmax (median)",1.5 h
same,Tmax,"[1]; human, plasma, oral, 300 mg, healthy volunteers, fasted, 300 mg QD (Cohort CM), Day 7, read-out: Tmax (range)",1 to 1.5 h
same,AUC,[1]; [8],~2210 ng·h/mL
same,Cmax,[1]; [8],~910 ng/mL
same,AUC,[1]; [9],~633 ng·h/mL
same,Cmax,[1]; [9],~307 ng/mL
same,half-life,"[1]; human, plasma, oral, 300 mg, healthy volunteers, fasted, 300 mg QD, Day 7, read-out: T1/2 (geometric mean) (converted)",~6.07 h
same,Tmax,"[1]; human, plasma, oral, healthy volunteers, 100-300 mg QD, post-administration, read-out: median Tmax, all MAD cohorts",1 to 1.5 h
same,binding to the monomer (in words),monomer,does not bind to the monomer
